Values of other authors in the CATMoS acute toxicity set (Mansouri et al. 2021).
Where “and” joins values, the source holds several entries; their conditions need not be identical. Identical values can stand only once.

test: rat acute oral toxicity; conditions: in vivo

Structure (SMILES)	LD50
C=C1CC[C@H](O)C/C1=C/C=C1\CCC[C@]2(C)[C@@H]([C@H](C)CCCC(C)C)CC[C@@H]12	42 mg/kg
CCCCCCOCCOC(=O)CCCCC(=O)OCCOCCCCCC	4290 mg/kg
CCCCC(C)(C)O[Si](OC(C)(C)CCCC)(OC(C)(C)CCCC)OC(C)(C)CCCC	60300 mg/kg
CC[n+]1c(C=C2Sc3ccccc3N2C)ccc2ccccc21	2240 mg/kg
CC(C)c1cccc(C(C)C)c1O	500 mg/kg
c1ccc2c(c1)ncn2P(n1cnc2ccccc21)n1cnc2ccccc21	2900 mg/kg
CCC1NC(=O)c2ccccc2O1 (centres undefined)	1310 mg/kg
C(=NC1CCCCC1)c1ccccc1	3080 mg/kg
CC1=CC(=C2C(=O)c3ccccc3C2=O)C=CN1CCN1CCCCC1	390 mg/kg
CC1(C)Cc2cccc(OC(=O)NCSc3ccc(Br)cc3)c2O1	25 mg/kg
Cc1cccc(C)c1NC(=O)CN1CCCC1=O	1180 mg/kg
CCN(CC)CCSSCCN(CC)CC	340 mg/kg
O=C1c2ccccc2C(=O)C1C(=O)C(c1ccccc1)c1ccccc1	1.5 mg/kg
CCCC(=O)O[C@]1(C(=O)COC(=O)CC)CC[C@H]2[C@@H]3CCC4=CC(=O)CC[C@]4(C)[C@H]3[C@@H](O)C[C@@]21C	5120 mg/kg
CC1(C)CCCO1	4000 mg/kg
Cc1ccc2c(c1)c1c3n2CCNC3CCC1 (centres undefined)	2060 mg/kg
C[C@H](CCC(=O)O)[C@H]1CC[C@H]2[C@@H]3[C@H](O)C[C@@H]4C[C@H](O)CC[C@]4(C)[C@H]3CC[C@]12C	4000 mg/kg
CCOP(=O)(NC(C)C)SCC(=O)NCOC (centres undefined)	100 mg/kg
CCC(=O)OC(=O)CC	2360 mg/kg
Cc1cc(Cl)ccc1Cn1nc(C(=O)O)c2ccccc21	4000 mg/kg
COC(=S)SSC(=S)OC	240 mg/kg
N#Cc1ccc(F)cc1C#N	14 mg/kg
Cc1ccc2ccccc2n1	1230 mg/kg

Structure (SMILES)	LD50
C=CCl	500 mg/kg
CCN(CC)CCNC(=O)c1ccc(NS(C)(=O)=O)cc1	3200 mg/kg
CN(C)[SiH](N(C)C)N(C)C	594 mg/kg
CC(C)=CCC/C(C)=C\CO	4500 mg/kg
CCN(CC)CCN(CCN(CC)CC)n1cc(-c2ccccc2)c2ccccc21	800 mg/kg
CN(C)C(=O)Nc1cccc(OC(F)(F)C(F)F)c1	1260 mg/kg
CCN(CC)CCOc1ccc(C2=C(c3ccccc3)CCc3cc(OC)ccc32)cc1	547 mg/kg
O=C1N(Cc2ccccc2)C2C[S+]3CCCC3C2N1Cc1ccccc1 (centres undefined)	2490 mg/kg
CCOC(=O)C1(c2ccccc2)CCN(C)CC1	170 mg/kg
CC(C)(C)C1CCC(NCCC(c2ccccc2)c2ccccc2)CC1 (centres undefined)	2550 mg/kg
CC1=C2C(=O)O[C@@H](c3ccoc3)[C@]2(C)CCC1	274 mg/kg
CCCC(CCC)C(=O)O[C@H]1C[C@H]2CC[C@@H](C1)[N+]2(C)C	705 mg/kg
CN1CCCC(CN2c3ccccc3Sc3ccccc32)C1 (centres undefined)	1000 mg/kg
CSCCC(OC(C)=O)C(=O)O (centres undefined)	2340 mg/kg
c1ccc2c(c1)ncc1ncsc12	350 mg/kg and 290 mg/kg
S=C1N=CC=NC(=S)SSSS1	8530 mg/kg
N#CC(=Cc1ccc(Cl)cc1Cl)C(=O)O	50 mg/kg
O=[N+]([O-])c1cc([N+](=O)[O-])c(Nc2cc(C(F)(F)F)ccc2Cl)c(C(F)(F)F)c1	94 mg/kg
COC(=O)[C@H]1[C@H]2C[C@@H]3c4[nH]c5cc(OC)ccc5c4CCN3C[C@H]2C[C@@H](OC(=O)c2cc(OC)c(OC)c(OC)c2)[C@@H]1OC	420 mg/kg
Cc1cccc(N2CCN(CC=Cc3ccc4c(c3)CCC(=O)N4Cc3ccccc3)CC2)c1	500 mg/kg
COc1ccc(OC)c2[nH]c(C(F)(F)F)nc12	60 mg/kg
COc1ccc2c(c1)OC(C)(C)C(c1ccccc1)=C2c1ccc(OCCN2CCCC2)cc1	150 mg/kg
O=C(c1cc2ccccc2o1)N1CCN(Cc2ccccc2)CC1	2530 mg/kg

Structure (SMILES)	LD50
CNC(=O)ON=C1SCCSC1(C)C	0.27 mg/kg
CN(CCO)CC(O)Cn1cnc2c1c(=O)n(C)c(=O)n2C (centres undefined)	14100 mg/kg
CCCS(=O)(=O)c1c(Cl)cnc(Cl)c1Cl	1100 mg/kg
CCCOC(N)=O	1880 mg/kg
CCN(CC(=O)O)S(=O)(=O)C(F)(F)C(F)(F)C(F)(F)C(F)(F)C(F)(F)C(F)(F)C(F)(F)C(F)(F)F	619 mg/kg
COP(=S)(OC)SCn1nc(Cl)c(C)cc1=O	65 mg/kg
C=C(Nc1ccc(NC(=O)COC)cc1)N(C)C	4690 mg/kg
CN1CCCC(n2nc(Cc3ccc(Cl)cc3)c3ccccc3c2=O)CC1 (centres undefined)	310 mg/kg and 580 mg/kg
CCOP(=S)(OCC)SCn1nc(Cl)c(Cl)cc1=O	1880 mg/kg
NNC(=O)CCCCCCCCC(=O)NN	2500 mg/kg
O=C1[C@H]2C[C@@H]3[C@@H]4[C@H]2[C@]2(Cl)[C@@H](Cl)[C@](Cl)([C@H]13)[C@@]4(Cl)C2(Cl)Cl (racemic)	10 mg/kg
C=C(CCl)CCl	150 mg/kg
O=C(OC1CCC(N2CCCCC2)CC1)c1ccc([N+](=O)[O-])cc1 (centres undefined)	3250 mg/kg
c1ccc(Nc2ccc(Nc3ccccc3)cc2)cc1	2370 mg/kg
OCCOCCN1CCN(C(c2ccccc2)c2ccc(Cl)cc2)CC1 (centres undefined)	690 mg/kg and 950 mg/kg and 840 mg/kg
CC(F)(F)C(F)(F)C(F)(F)C(O)(F)F	1110 mg/kg
CC(=O)Oc1ccc(C2(c3ccc(OC(C)=O)cc3)C(=O)N(C(C)=O)c3ccccc32)cc1	500 mg/kg
COP(=O)(OC)SC(CC(=O)OC(C)C)C(=O)OC(C)C (centres undefined)	120 mg/kg
COC(=O)/C(C)=C/OP(=S)(OC)OC	678 mg/kg
CN1CCCCC1CCN1c2ccccc2Sc2ccc(Cl)cc21 (centres undefined)	1200 mg/kg
O=CC=CC1CO1 (centres undefined)	62 mg/kg
CCOc1ccc(C(=O)NCc2ccc(OCCNC)cc2)cc1OCC	3000 mg/kg
Cc1c(O)cccc1O	200 mg/kg
